Test system: Landrace x Large White reserve sows
Experiment: Heat detection: estrus rate and estrus time in gilts, different doses (Example 2)
Type: in vivo, pigs
From the text: Landrace x Large White reserve sows, about 230 days old, were randomly divided into a batch farrowing with FTAI and batch farrowing with FTAI combined with different doses of 1-[bis(4-cyanophenyl)methyl]-1,2,4-triazole groups, and during the experiment, the experimental sows in each group were fed regularly and gained free access to water according to the requirements of feeding management in the farm.
Referring to the dosage of 1-[bis(4-cyanophenyl)methyl]-1,2,4-triazole in clinical medicine and using standard weight-dosage conversion, the recommended dosage of 1-[bis(4-cyanophenyl)methyl]-1,2,4-triazole for sows was 50-150 μg/kg·BW/day, orally for consecutive 5 days, as derived by conversion. In addition, the applicant previously studied uniparous cows, and in the ovulation induction scheme, the reference dosage of 1-[bis(4-cyanophenyl)methyl]-1,2,4-triazole was 60-200 μg/kg·BW, administered in a single dose; furthermore, by means of conversion in conjunction with the dosage for model animals (mice) previously in the laboratory, various dosages were designed. The treatment methods of hormones and drugs for sows in each group were as follows: • batch farrowing with FTAI: the sows were fed with an altrenogest oral solution at 20 mg/animal at the same time every day, for 18 days; PMSG at 1000 IU/animal was injected intramuscularly 42 h after the last feeding with altrenogest, GnRH at 100 μg/animal was injected intramuscularly 80 h after the injection of PMSG, a first timed insemination was performed 24 h after the injection of GnRH, and a second timed insemination was performed 16 h after the first insemination.
Treatment group 1: the hormone treatment and mating schemes for gilts were the same as FTAI. The difference lay in that PMSG at 1000 IU/gilt was injected intramuscularly 42 h after the last feeding with altrenogest, and 1-[bis(4-cyanophenyl)methyl]-1,2,4-triazole at 12 μg/kg·BW/day was administered orally 8 h after the injection of PMSG, for 1 day.
Treatment group 2: the hormone treatment and mating schemes for gilts were the same as FTAI. The difference lay in that PMSG at 1000 IU/gilt was injected intramuscularly 42 h after the last feeding with altrenogest, and 1-[bis(4-cyanophenyl)methyl]-1,2,4-triazole at 12 μg/kg·BW/day was administered orally 8 h after the injection of PMSG, for 2 days.
Treatment group 3: the hormone treatment and mating schemes for gilts were the same as FTAI. The difference lay in that PMSG at 1000 IU/gilt was injected intramuscularly 42 h after the last feeding with altrenogest, and 1-[bis(4-cyanophenyl)methyl]-1,2,4-triazole at 20 μg/kg·BW/day was administered orally 8 h after the injection of PMSG, for 1 day.
Treatment group 4: the hormone treatment and mating schemes for sows were the same as FTAI. The difference lay in that PMSG at 1000 IU/gilt was injected intramuscularly 42 h after the last feeding with altrenogest, and 1-[bis (4-cyanophenyl)methyl]-1,2,4-triazole at 20 μg/kg·BW/day was administered orally 8 h after the injection of PMSG, for 2 days.
Treatment group 5: the hormone treatment and mating schemes for gilts were the same as FTAI. The difference lay in that PMSG at 1000 IU/animal was injected intramuscularly 42 h after the last feeding with altrenogest, and 1-[bis(4-cyanophenyl)methyl]-1,2,4-triazole at 20 μg/kg·BW/day was administered orally 8 h after the injection of PMSG, for 3 days.
Treatment group 6: the hormone treatment and mating schemes for gilts were the same as FTAI. The difference lay in that PMSG at 1000 IU/animal was injected intramuscularly 42 h after the last feeding with altrenogest, and 1-[bis(4-cyanophenyl)methyl]-1,2,4-triazole at 20 μg/kg·BW/day was administered orally 8 h after the injection of PMSG, for 5 days.
Treatment group 7: the hormone treatment and mating schemes for gilts were the same as FTAI. […]

With `N#Cc1ccc(C(c2ccc(C#N)cc2)n2cncn2)cc1` [1-[bis(4-cyanophenyl)methyl]-1,2,4-triazole] the “Number of estrous animals at different times after stopping Altrenogest (day/animal)” value (day 5.5, Example 2 Treatment group 5: 20 μg/kg·BW/day orally, 3 days, gilts) was 6 animal, the “Number of estrous animals at different times after stopping Altrenogest (day/animal)” value (day 5.5, Example 2 Treatment group 6: 20 μg/kg·BW/day orally, 5 days, gilts) was 0 animal and the “Number of estrous animals at different times after stopping Altrenogest (day/animal)” value (day 5.5, Example 2 Treatment group 7: 40 μg/kg·BW/day orally, 1 day, gilts) was 2 animal. For the same compound, the “Number of estrous animals at different times after stopping Altrenogest (day/animal)” value (day 5.5, Example 2 Treatment group 8: 40 μg/kg·BW/day orally, 5 days, gilts) was 0 animal, the “Number of estrous animals at different times after stopping Altrenogest (day/animal)” value (day 6, Example 2 Treatment group 1: 12 μg/kg·BW/day orally, 1 day, gilts) was 8 animal and the “Number of estrous animals at different times after stopping Altrenogest (day/animal)” value (day 6, Example 2 Treatment group 2: 12 μg/kg·BW/day orally, 2 days, gilts) was 7 animal. For the same compound, the “Number of estrous animals at different times after stopping Altrenogest (day/animal)” value (day 6, Example 2 Treatment group 3: 20 μg/kg·BW/day orally, 1 day, gilts) was 7 animal, the “Number of estrous animals at different times after stopping Altrenogest (day/animal)” value (day 6, Example 2 Treatment group 4: 20 μg/kg·BW/day orally, 2 days, gilts) was 6 animal and the “Number of estrous animals at different times after stopping Altrenogest (day/animal)” value (day 6, Example 2 Treatment group 5: 20 μg/kg·BW/day orally, 3 days, gilts) was 7 animal. For the same compound, the “Number of estrous animals at different times after stopping Altrenogest (day/animal)” value (day 6, Example 2 Treatment group 6: 20 μg/kg·BW/day orally, 5 days, gilts) was 5 animal, the “Number of estrous animals at different times after stopping Altrenogest (day/animal)” value (day 6, Example 2 Treatment group 7: 40 μg/kg·BW/day orally, 1 day, gilts) was 2 animal and the “Number of estrous animals at different times after stopping Altrenogest (day/animal)” value (day 6, Example 2 Treatment group 8: 40 μg/kg·BW/day orally, 5 days, gilts) was 2 animal. For the same compound, the “Number of estrous animals at different times after stopping Altrenogest (day/animal)” value (day 6.5, Example 2 Treatment group 1: 12 μg/kg·BW/day orally, 1 day, gilts) was 4 animal, the “Number of estrous animals at different times after stopping Altrenogest (day/animal)” value (day 6.5, Example 2 Treatment group 2: 12 μg/kg·BW/day orally, 2 days, gilts) was 3 animal and the “Number of estrous animals at different times after stopping Altrenogest (day/animal)” value (day 6.5, Example 2 Treatment group 3: 20 μg/kg·BW/day orally, 1 day, gilts) was 5 animal. The “Number of estrous animals at different times after stopping Altrenogest (day/animal)” value (day 6.5, Example 2 Treatment group 4: 20 μg/kg·BW/day orally, 2 days, gilts) was 4 animal, the “Number of estrous animals at different times after stopping Altrenogest (day/animal)” value (day 6.5, Example 2 Treatment group 5: 20 μg/kg·BW/day orally, 3 days, gilts) was 3 animal and the “Number of estrous animals at different times after stopping Altrenogest (day/animal)” value (day 6.5, Example 2 Treatment group 6: 20 μg/kg·BW/day orally, 5 days, gilts) was 3 animal. For the same compound, the “Number of estrous animals at different times after stopping Altrenogest (day/animal)” value (day 6.5, Example 2 Treatment group 7: 40 μg/kg·BW/day orally, 1 day, gilts) was 9 animal, the “Number of estrous animals at different times after stopping Altrenogest (day/animal)” value (day 6.5, Example 2 Treatment group 8: 40 μg/kg·BW/day orally, 5 days, gilts) was 2 animal and the “Number of estrous animals at different times after stopping Altrenogest (day/animal)” value (day 7, Example 2 Treatment group 1: 12 μg/kg·BW/day orally, 1 day, gilts) was 5 animal. For the same compound, the “Number of estrous animals at different times after stopping Altrenogest (day/animal)” value (day 7, Example 2 Treatment group 2: 12 μg/kg·BW/day orally, 2 days, gilts) was 3 animal, the “Number of estrous animals at different times after stopping Altrenogest (day/animal)” value (day 7, Example 2 Treatment group 3: 20 μg/kg·BW/day orally, 1 day, gilts) was 2 animal and the “Number of estrous animals at different times after stopping Altrenogest (day/animal)” value (day 7, Example 2 Treatment group 4: 20 μg/kg·BW/day orally, 2 days, gilts) was 2 animal. The “Number of estrous animals at different times after stopping Altrenogest (day/animal)” value (day 7, Example 2 Treatment group 5: 20 μg/kg·BW/day orally, 3 days, gilts) was 3 animal, the “Number of estrous animals at different times after stopping Altrenogest (day/animal)” value (day 7, Example 2 Treatment group 6: 20 μg/kg·BW/day orally, 5 days, gilts) was 8 animal and the “Number of estrous animals at different times after stopping Altrenogest (day/animal)” value (day 7, Example 2 Treatment group 7: 40 μg/kg·BW/day orally, 1 day, gilts) was 0 animal. For the same compound, the “Number of estrous animals at different times after stopping Altrenogest (day/animal)” value (day 7, Example 2 Treatment group 8: 40 μg/kg·BW/day orally, 5 days, gilts) was 0 animal, the “Number of estrous animals at different times after stopping Altrenogest (day/animal)” value (day 7.5, Example 2 Treatment group 1: 12 μg/kg·BW/day orally, 1 day, gilts) was 1 animal and the “Number of estrous animals at different times after stopping Altrenogest (day/animal)” value (day 7.5, Example 2 Treatment group 2: 12 μg/kg·BW/day orally, 2 days, gilts) was 1 animal. For the same compound, the “Number of estrous animals at different times after stopping Altrenogest (day/animal)” value (day 7.5, Example 2 Treatment group 3: 20 μg/kg·BW/day orally, 1 day, gilts) was 1 animal, the “Number of estrous animals at different times after stopping Altrenogest (day/animal)” value (day 7.5, Example 2 Treatment group 4: 20 μg/kg·BW/day orally, 2 days, gilts) was 1 animal and the “Number of estrous animals at different times after stopping Altrenogest (day/animal)” value (day 7.5, Example 2 Treatment group 5: 20 μg/kg·BW/day orally, 3 days, gilts) was 2 animal. The “Number of estrous animals at different times after stopping Altrenogest (day/animal)” value (day 7.5, Example 2 Treatment group 6: 20 μg/kg·BW/day orally, 5 days, gilts) was 1 animal, the “Number of estrous animals at different times after stopping Altrenogest (day/animal)” value (day 7.5, Example 2 Treatment group 7: 40 μg/kg·BW/day orally, 1 day, gilts) was 9 animal and the “Number of estrous animals at different times after stopping Altrenogest (day/animal)” value (day 7.5, Example 2 Treatment group 8: 40 μg/kg·BW/day orally, 5 days, gilts) was 0 animal. The “Number of estrous animals at different times after stopping Altrenogest (day/animal)” value (day 8, Example 2 Treatment group 1: 12 μg/kg·BW/day orally, 1 day, gilts) was 0 animal, the “Number of estrous animals at different times after stopping Altrenogest (day/animal)” value (day 8, Example 2 Treatment group 2: 12 μg/kg·BW/day orally, 2 days, gilts) was 0 animal and the “Number of estrous animals at different times after stopping Altrenogest (day/animal)” value (day 8, Example 2 Treatment group 3: 20 μg/kg·BW/day orally, 1 day, gilts) was 0 animal. For the same compound, the “Number of estrous animals at different times after stopping Altrenogest (day/animal)” value (day 8, Example 2 Treatment group 4: 20 μg/kg·BW/day orally, 2 days, gilts) was 0 animal, the “Number of estrous animals at different times after stopping Altrenogest (day/animal)” value (day 8, Example 2 Treatment group 5: 20 μg/kg·BW/day orally, 3 days, gilts) was 1 animal and the “Number of estrous animals at different times after stopping Altrenogest (day/animal)” value (day 8, Example 2 Treatment group 6: 20 μg/kg·BW/day orally, 5 days, gilts) was 2 animal. For the same compound, the “Number of estrous animals at different times after stopping Altrenogest (day/animal)” value (day 8, Example 2 Treatment group 7: 40 μg/kg·BW/day orally, 1 day, gilts) was 0 animal, the “Number of estrous animals at different times after stopping Altrenogest (day/animal)” value (day 8, Example 2 Treatment group 8: 40 μg/kg·BW/day orally, 5 days, gilts) was 0 animal and the “estrus on the 8th day after altrenogest was stopped” value (gilts, 80 and 160 μg/kg·BW/day for 5 consecutive days (treatment groups 9 and 10)) was “no estrus”. The estrus rate (gilts, high dose or multiple (5) low doses (treatment groups 6, 8, 9, and 10)) was “decreased estrus rate or even no estrus”, the estrus rate (gilts, low dose (treatment groups 1, 2, 3, 4, 5, and 7), compared with FTAI group) was “not significantly different” and the estrus in sows (high-dose) was “inhibited”. For the same compound, the gilt estrus rate (low-dose, batch farrowing with FTAI) was “no significant change”.
